Source: patent publication US20120129787A1, “Modified oligopeptides with anticancer properties and methods of obtaining them” (priority 2010, published 2012)

Assays:
HeLa cells = assay: Effect of MPs on HeLa cells: number of surviving cells versus concentration; format: cell-based
Text: In establishing the minimum concentration of MPs that will slow the growth of cells, a comparison was made between the number of surviving cells and the concentration of MPs in the solution.

benzidine skin sarcoma = assay: Anti-cancer activity on benzidine skin sarcoma in Barbados mice; format: in vivo; details: mice with benzidine sarcoma
Protocol: Study of the Anti-Cancer Activity of Anticanum on Benzidine Sarcoma. Before applying it to the silica gel, 7 ml of a solution of 2% benzidine and 0.9% sodium chloride was added until an opalescent suspension was formed (1 g silica gel for 5 ml NaCl solution). Twenty-five Barbados mice of both sexes with a weight of 18-20 g that were kept on a vivarium diet were administered benzidine and phorbol acetate immobilized on silica gel subcutaneously near the neck every three days. After two weeks, 18 animals had developed tumors of different sizes in the form of a small bump on the neck near the silica gel granulomas. Each group of animals was administered the corresponding compound parenterally at a dose of 100 mcg/kg weight twice a day for two weeks, beginning at 16 days after administration of the carcinogen.

SMILES: CC(=O)O[C@@]12CO[C@@H]1C[C@H](O)[C@@]1(C)C(=O)[C@H](O)C3=C(C)[C@@H](OC(=O)[C@H](O)[C@@H](NC(=O)OC(C)(C)C)c4ccccc4)C[C@@](O)([C@@H](OC(=O)c4ccccc4)[C@H]21)C3(C)C [Taxotere]
- Number of live cells after incubation, % (HeLa cells; dose 20 mcg/ml): 93%
- Number of live cells after incubation, % (HeLa cells; dose 40 mcg/ml): 91%
- Number of live cells after incubation, % (HeLa cells; dose 60 mcg/ml): 0.12%
- Number of live cells after incubation, % (HeLa cells; dose 100 mcg/ml): 92%
- Number of live cells after incubation, % (HeLa cells; dose 120 mcg/ml): 101%
- Weight of Animal, Before Treatment (benzidine skin sarcoma): 27 ± 2 g
